Data as given in US20060276549A1, “Combination and use of drugs” (priority 2005, published 2006).
Where two headings read alike, the source gives them in different places.

Legend:
[1] = tested on: Diet-induced Obese (DIO) Mice; test: Body weight loss in diet-induced obese (DIO) mice; type: in vivo, C57BL/6J mice; details: for body weight loss at day 14: p.o. q.d., sibutramine 15 mg/kg, rimonabant 3 mg/kg base
Experimental: C57BL/6J mice (age 5-6 weeks) were obtained from Jackson Labs (Bar Harbor, Me.) and housed in groups of 5 under conditions of 12 hours lights on, 12 hours lights off (on at 04:00 h), with food and water available ad libitum. At the beginning of the study, mice were administered a purified low fat diet (D12450Bi, 10 kcal % fat, 3.8 kcal/g) or a high fat content diet (D12492i, 60 kcal % fat, 5.2 kcal/g), both obtained from Research Diets Inc. (New Brunswick, N.J.) for approximately 16 weeks. The fat content of these diets was a mixture of lard and soybean oil.
(§1) Mice were individually housed for study two weeks prior to start of treatment. Mice were weighed one week later (experiment day -7), and conditioned to oral gavage and daily vehicle administration by daily oral treatment at 15:00 h with Tween-80 (Sigma Chemical, St. Louis, Mo.) 1% vehicle in water (V/V). All doses were given in 4 ml/kg body weight volume of vehicle. All compound doses are expressed as base equivalent weights per unit body weight. Mice were reweighed on day -1 to ensure that weight loss plateaued and was not progressive. Mice were stratified into groups of equal mean body weight, with n=20 mice per group. On days 0 to 28, mice were dosed by oral gavage at 15:00 h (q.d.). Sibutramine hydrochloride monohydrate and rimonabant hydrochloride were administered p.o. by gavage for 27 to 28 days at 15:00 h, at doses of 15 mg/kg and 3 mg/kg base, respectively, once a day (q.d.). Compounds were formulated in Tween-80 vehicle. For combination treatment, the individual compound formulations were mixed together immediately prior to dosing, and given as a single gavage. Food and body weights were determined on days 0 prior to treatment, and on days 1, 4, 7, 11, 14, 18, 21, 25, 27 and 28. Ten mice per group were fasted overnight on day 27. […] Plasma was analysed for insulin, leptin, free fatty acids, triglycerides, total cholesterol, HDLc and LDLc. […]

[2] = tested on: Diet-induced Obese (DIO) Mice; test: Prevention of body weight re-gain in DIO mice; type: in vivo, C57BL/6J mice; details: DIO mice re-introduced to high fat food; qd dosing, day 0-7; vs HF, LF, to HF control
Experimental: C57BL/6J mice (age 5-6 weeks) were obtained from Jackson Labs (Bar Harbor, Me.) and housed in groups of 5 under conditions of 12 hours lights on, 12 hours lights off (on at 04:00 h), with food and water available ad libitum. At the beginning of the study, mice were administered a purified low fat diet (D12450Bi, 10 kcal % fat, 3.8 kcal/g) or a high fat content diet (D12492i, 60 kcal % fat, 5.2 kcal/g), both obtained from Research Diets Inc. (New Brunswick, N.J.) for approximately 16 weeks. The fat content of these diets was a mixture of lard and soybean oil. Groups of mice that had been on the high fat diet were switched back to the low fat diet for approximately 4 weeks prior to their being re-introduced to either the high fat food (weight re-gain) or maintained on low fat food. Approximately 5 days prior to the onset of dosing study (Day -5), mice were acclimated to handling and conditioned to oral gavage and daily vehicle administration by daily oral treatment at 15:00 h with Tween-80 (Sigma Chemical, St. Louis, Mo.) 1% vehicle in water (VN). All doses were given in 4 ml/kg body weight volume of vehicle. At the start of drug treatment, mice were dosed qd at 15:00 hr each day for 7 days, and body weights and food intake were evaluated.

Zucker fa/fa rats = test: Rat model of snacking behavior with isobologram analysis; type: in vivo; details: for ED50: Rattus norvegicus, read-out: ED50 for reduction of snack intake (50% reduction in Snack Consumption); for effect on snack intake / snacking: oral dosing before snack
Experimental: Non-fasted male Zucker fa/fa −/− rats (450 gr) were habituated for 3 weeks to a twice weekly, 3 hour exposure to 60% fat diet (RDI #12492) achieving an average snack intake of 12 to 16 g. Compounds or vehicle (1% Tween 80/water) were dosed orally, 1 ml/kg, n=12-15/group, 1 hour before exclusive presentation of the snack. Snack intake and subsequent 21-hour intake of standard chow (Purina 5008) were measured. […] It is unclear from these individual studies, however, if combination treatment would result in an even greater effect on snacking behavior as reflected in a shift of the ED50 to lower doses. Therefore, an isobologram analysis was performed as described in Example 6
Dose response curves for sibutramine hydrochloride monohydrate and rimonabant hydrochloride were generated in the rat snacking model and ED50 and 95% confidence limits derived from the linear part of the curve by linear regression. Two combination studies in snacking (n=12 rats/group) were performed; the first with a fixed dose of sibutramine HCl (5 mg base/kg) co-administered with rimonabant at 1, 2.5, and 5 mg base/kg, and the second with rimonabant fixed at 4 mg base/kg with sibutramine at 2, 4, and 8 mg base/kg, plus vehicle control. ED50 values were derived from the combination studies and plotted on the isobologram. The ED50 is the dose where there is a 50% reduction in Snack Consumption. […] The rimonabant hydrochloride ED50 is 8 mg/kg.

DIO mice = test: DEXA analysis of body composition in DIO mice; type: in vivo; details: Day 28
Experimental: as §1

[3] = cited from earlier work

SMILES	further weight loss compared with sibutramine treated animals ([1]; Day 14-28)	body weight loss at day 14 [1]	body weight re-gain [2]	ED50 (Zucker fa/fa rats; Zucker fa/fa rats, oral, 1 hour before 3 hour 60% fat snack)	effect on snack intake / snacking (Zucker fa/fa rats)	lean mass (DEXA) vs. DIO controls (DIO mice)	food intake ([3]; literature studies, initially)	reduction of body weight ([3]; over a 6 month or a 1 year period)	ED50 (Zucker fa/fa rats; po)
Cc1c(C(=O)NN2CCCCC2)nn(-c2ccc(Cl)cc2Cl)c1-c1ccc(Cl)cc1 [rimonabant, 1-H-pyrazole-3-carboxamide, 5-(4-chlorophenyl)-1-(2,4-dichlorophenyl)-4-methyl-N-1-piperidinyl]	approximately 4%	15%	prevent body weight re-gain	8 mg/kg	effective in reducing snack intake				
CC(C)CC(N(C)C)C1(c2ccc(Cl)cc2)CCC1 (stereo not drawn) [sibutramine, N,N-dimethyl-1-[1-(4-chlorophenyl)cyclobutyl]-3-methylbutylamine]		14%	prevent body weight re-gain		effective in reducing snack intake	statistical decreases in lean mass	potently inhibits food intake	about 10%	24 mg/kg
